Assay results taken from PMC7377239, “Cardiovascular Effects of Polychlorinated Biphenyls and Their Major Metabolites” (Environmental Health Perspectives, 2020).
Like-named read-outs stand apart in the source and are kept apart here.

Tests used:
HUVECs = experiment: Tube formation (tubulogenesis) assay in HUVECs, 18 h; type: cell-based, human; details: Homo sapiens, HUVEC, 18 h, HUVECs; for activity at 0.1 µM: 0.10 µM; for minimal effective concentration: top concentration 100.00 µM
Method in brief: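 HUVECs (passage 1–5) seeded on reduced-growth-factor basement membrane and exposed to compounds overnight at 37°C, 5% CO2, in 2× maintenance medium with 12.5 ng/mL VEGF; 0.5% DMSO vehicle. Calcein AM-stained tube networks imaged and analysed; vehicle-normalized readouts fit to four-parameter logistic, POD set at one SD of vehicle means.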

[1] = tested on: iCell endothelial cells (human iPSC-derived ECs); experiment: Tube formation (tubulogenesis) assay in iCell endothelial cells, 18 h; type: cell-based; details: Homo sapiens, Endothelial cell, iPSC-EC tube formation, 18 hr; for activity at 0.1 µM: 0.10 µM; for minimal effective concentration: top concentration 100.00 µM
Method in brief: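 iCell ECs (passages 1–5) seeded 7,500 cells/well on reduced-growth-factor Geltrex in starvation medium, exposed overnight at 37°C to compounds in triplicate concentration–response (0.5% DMSO vehicle). Calcein AM staining, 4× imaging, angiogenesis image analysis; readouts normalized to vehicle, four-parameter logistic fit, POD at 1 SD of vehicle; 100 μM assigned NOAEL if no response.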

[2] = 0.00 µM = 100.00, read-out: huvec.mtl.18hr
[3] = 0.00 µM = 100.00, read-out: huvec.tlps.18hr
[4] = 0.00 µM = 100.00, read-out: huvec.tta.18hr
[5] = 0.00 µM = 100.00, read-out: huvec.ttl.18hr
[6] = 0.00 µM control = 100.00, read-out: endo.mtl.18hr
[7] = 0.00 µM control = 100.00, read-out: endo.tlps.18hr
[8] = 0.00 µM control = 100.00, read-out: endo.tta.18hr
[9] = 0.00 µM control = 100.00, read-out: endo.ttl.18hr

Compound: Clc1ccc(Cl)c(-c2cc(Cl)ccc2Cl)c1 [PCB52]
- activity at 0.01 µM (HUVECs; [2]): 105%
- activity at 0.01 µM (HUVECs; [3]): 114%
- activity at 0.01 µM (HUVECs; [4]): 103%
- activity at 0.01 µM (HUVECs; [5]): 94.1%
- activity at 0.1 µM (HUVECs; [2]): 111%
- activity at 0.1 µM (HUVECs; [3]): 126%
- activity at 0.1 µM (HUVECs; [4]): 105%
- activity at 0.1 µM (HUVECs; [5]): 94.2%
- activity at 1 µM (HUVECs; [2]): 108%
- activity at 1 µM (HUVECs; [3]): 121%
- activity at 1 µM (HUVECs; [4]): 86.8%
- activity at 1 µM (HUVECs; [5]): 81.6%
- activity at 10 µM (HUVECs; [2]): 100%
- activity at 10 µM (HUVECs; [3]): 95%
- activity at 10 µM (HUVECs; [4]): 99.7%
- activity at 10 µM (HUVECs; [5]): 94.2%
- activity at 100 µM (HUVECs; [2]): 97.2%
- activity at 100 µM (HUVECs; [3]): 114%
- activity at 100 µM (HUVECs; [4]): 94.8%
- activity at 100 µM (HUVECs; [5]): 83.5%
- minimal effective concentration (HUVECs; read-out: huvec.mtl.18hr POD): 100 µM
- minimal effective concentration (HUVECs; read-out: huvec.tlps.18hr POD): 100 µM
- minimal effective concentration (HUVECs; read-out: huvec.tta.18hr POD): 100 µM
- minimal effective concentration (HUVECs; read-out: huvec.ttl.18hr POD): 100 µM
- activity at 0.01 µM [1, 6]: 109%
- activity at 0.01 µM [1, 7]: 89.1%
- activity at 0.01 µM [1, 8]: 152%
- activity at 0.01 µM [1, 9]: 156%
- activity at 0.1 µM [1, 6]: 111%
- activity at 0.1 µM [1, 7]: 140%
- activity at 0.1 µM [1, 8]: 108%
- activity at 0.1 µM [1, 9]: 116%
- activity at 1 µM [1, 6]: 107%
- activity at 1 µM [1, 7]: 132%
- activity at 1 µM [1, 8]: 125%
- activity at 1 µM [1, 9]: 133%
- activity at 10 µM [1, 6]: 110%
- activity at 10 µM [1, 7]: 108%
- activity at 10 µM [1, 8]: 119%
- activity at 10 µM [1, 9]: 120%
- activity at 100 µM [1, 6]: 79%
- activity at 100 µM [1, 7]: 83.4%
- activity at 100 µM [1, 8]: 89.5%
- activity at 100 µM [1, 9]: 95.5%
- minimal effective concentration ([1]; read-out: endo.mtl.18hr POD): 79.8 µM
- minimal effective concentration ([1]; read-out: endo.tlps.18hr POD): 100 µM
- minimal effective concentration ([1]; read-out: endo.tta.18hr POD): 100 µM
- minimal effective concentration ([1]; read-out: endo.ttl.18hr POD): 100 µM
